# Active and inactive are the calls of the source.
# How the values were obtained:
# [1] = cells; type: functional, cell-based
# [2] = cells; type: functional, cell-based; remark: listed apart in the source
# [3] = molecular target: T1, Protein skinhead-1 (Caenorhabditis elegans, UniProt P34707); type: functional
# T1 sequence (P34707 whole entry): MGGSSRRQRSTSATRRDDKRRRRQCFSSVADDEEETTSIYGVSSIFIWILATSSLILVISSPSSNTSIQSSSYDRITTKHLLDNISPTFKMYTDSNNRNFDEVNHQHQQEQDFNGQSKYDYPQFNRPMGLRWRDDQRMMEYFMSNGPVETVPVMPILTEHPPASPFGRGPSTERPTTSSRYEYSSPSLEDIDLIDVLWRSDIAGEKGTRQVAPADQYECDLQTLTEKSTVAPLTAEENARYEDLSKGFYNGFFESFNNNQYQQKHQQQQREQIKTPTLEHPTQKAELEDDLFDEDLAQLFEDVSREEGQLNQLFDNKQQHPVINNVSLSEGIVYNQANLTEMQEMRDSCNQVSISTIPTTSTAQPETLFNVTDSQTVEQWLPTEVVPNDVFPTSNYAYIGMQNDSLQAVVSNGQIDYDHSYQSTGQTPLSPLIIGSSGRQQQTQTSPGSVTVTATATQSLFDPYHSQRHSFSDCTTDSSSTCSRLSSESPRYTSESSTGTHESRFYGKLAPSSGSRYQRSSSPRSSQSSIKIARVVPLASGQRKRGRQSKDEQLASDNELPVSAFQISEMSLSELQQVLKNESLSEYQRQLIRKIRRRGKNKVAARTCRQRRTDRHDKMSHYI
# [4] = molecular target: Heat shock protein HSP 90-alpha (Homo sapiens, UniProt P07900); type: functional, organism-based
# [5] = molecular target: T2, High affinity choline transporter 1 (Homo sapiens, UniProt Q9GZV3); assay: CHT inhibitors, dose response, cell-based, 5-point CRC, membrane potential dye (AID 504840); type: functional
# T2 sequence (Q9GZV3 whole entry): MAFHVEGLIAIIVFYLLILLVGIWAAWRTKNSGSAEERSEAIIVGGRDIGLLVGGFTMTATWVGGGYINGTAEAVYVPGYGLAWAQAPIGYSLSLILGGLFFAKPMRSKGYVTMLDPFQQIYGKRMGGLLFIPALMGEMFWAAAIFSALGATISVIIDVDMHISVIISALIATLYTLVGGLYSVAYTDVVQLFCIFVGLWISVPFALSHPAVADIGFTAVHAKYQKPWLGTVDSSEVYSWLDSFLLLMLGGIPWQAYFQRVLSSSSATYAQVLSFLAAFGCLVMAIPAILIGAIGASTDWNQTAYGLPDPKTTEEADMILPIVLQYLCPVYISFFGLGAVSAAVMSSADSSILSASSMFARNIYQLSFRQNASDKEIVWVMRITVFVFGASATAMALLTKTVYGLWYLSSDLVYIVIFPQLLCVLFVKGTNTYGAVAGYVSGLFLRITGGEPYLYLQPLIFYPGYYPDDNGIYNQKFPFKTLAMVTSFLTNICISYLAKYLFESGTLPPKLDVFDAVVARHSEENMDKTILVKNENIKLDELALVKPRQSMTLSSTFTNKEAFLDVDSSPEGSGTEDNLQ
# [6] = molecular target: T3, Microphthalmia-associated transcription factor (Homo sapiens, UniProt O75030); assay: TRPM1 promoter luciferase signal decrease, dose response, MITF inhibitor project, cell-based, SK-MEL-5, cherry-picked, set 3 (AID 493073); type: functional
# T3 sequence (O75030 whole entry): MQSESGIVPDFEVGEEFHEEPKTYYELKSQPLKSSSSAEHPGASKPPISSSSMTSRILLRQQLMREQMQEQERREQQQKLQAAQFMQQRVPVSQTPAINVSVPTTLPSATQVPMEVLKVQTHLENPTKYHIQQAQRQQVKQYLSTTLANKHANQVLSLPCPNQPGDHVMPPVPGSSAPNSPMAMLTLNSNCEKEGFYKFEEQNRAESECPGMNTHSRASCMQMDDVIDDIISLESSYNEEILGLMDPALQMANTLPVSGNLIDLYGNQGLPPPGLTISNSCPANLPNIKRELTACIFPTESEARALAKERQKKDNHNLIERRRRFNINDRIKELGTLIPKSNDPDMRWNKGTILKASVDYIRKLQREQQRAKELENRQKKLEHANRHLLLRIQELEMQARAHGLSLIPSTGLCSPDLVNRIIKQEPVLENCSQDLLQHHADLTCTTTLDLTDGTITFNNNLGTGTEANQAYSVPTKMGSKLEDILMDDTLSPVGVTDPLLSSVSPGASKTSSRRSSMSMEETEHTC
# [7] = molecular target: T4, Ubiquitin-conjugating enzyme E2 N (Homo sapiens, UniProt P61088); type: functional;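 note: Dose-response confirmation in a TR-FRET assay detecting UBC13-driven polyubiquitin chain formation, inhibition measured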
# T4 sequence (P61088 whole entry): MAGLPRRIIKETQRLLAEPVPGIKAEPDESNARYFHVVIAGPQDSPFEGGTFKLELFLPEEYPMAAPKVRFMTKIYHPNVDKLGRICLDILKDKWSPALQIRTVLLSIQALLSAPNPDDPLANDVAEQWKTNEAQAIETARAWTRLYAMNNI
# [8] = test system: Streptococcus sp. 'group A'; assay: growth inhibition of control SK(-) GAS strain, dose response, counter-screen for streptokinase expression inhibitor project, luminescence, kanamycin, BacTiterGlo, confirmation (AID 1900); type: functional, organism-based
# [9] = test system: Streptococcus; assay: Group A Streptococcus viability loss, dose response, counter-screen for streptokinase expression inhibitor project, luminescence, BacTiterGlo (AID 1915); type: functional, organism-based;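 note: potency for reduction of bacterial viability or growth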
# [10] = molecular target: T5, Replicative DNA helicase DnaB (Mycobacterium tuberculosis, UniProt P9WMR3); assay: DnaB intein splicing inhibitors, dose response, biochemical, cell-free fluorescence (AID 449749); type: functional
# T5 sequence (P9WMR3 whole entry): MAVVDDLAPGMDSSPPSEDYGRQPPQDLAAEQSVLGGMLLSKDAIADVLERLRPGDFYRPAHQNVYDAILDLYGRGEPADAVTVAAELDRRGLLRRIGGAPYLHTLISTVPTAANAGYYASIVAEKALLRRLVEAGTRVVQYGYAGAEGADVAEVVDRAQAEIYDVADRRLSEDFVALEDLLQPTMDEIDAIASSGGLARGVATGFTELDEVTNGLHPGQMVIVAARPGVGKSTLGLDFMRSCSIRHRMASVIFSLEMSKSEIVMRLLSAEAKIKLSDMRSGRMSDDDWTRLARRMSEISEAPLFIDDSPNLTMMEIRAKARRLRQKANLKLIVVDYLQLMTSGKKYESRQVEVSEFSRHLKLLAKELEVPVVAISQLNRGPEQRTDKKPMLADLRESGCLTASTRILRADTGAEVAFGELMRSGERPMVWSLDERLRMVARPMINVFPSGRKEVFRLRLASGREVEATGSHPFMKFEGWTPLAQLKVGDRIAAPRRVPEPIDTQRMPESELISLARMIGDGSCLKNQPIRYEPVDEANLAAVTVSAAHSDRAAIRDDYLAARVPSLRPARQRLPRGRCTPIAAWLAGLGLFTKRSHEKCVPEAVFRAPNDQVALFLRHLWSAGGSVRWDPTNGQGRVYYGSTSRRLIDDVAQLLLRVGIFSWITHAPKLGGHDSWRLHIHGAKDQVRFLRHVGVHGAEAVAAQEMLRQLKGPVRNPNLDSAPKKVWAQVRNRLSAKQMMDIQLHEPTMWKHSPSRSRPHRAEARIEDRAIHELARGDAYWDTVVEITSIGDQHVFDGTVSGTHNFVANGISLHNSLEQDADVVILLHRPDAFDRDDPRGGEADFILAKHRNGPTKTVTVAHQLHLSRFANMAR
# [11] = molecular target: T6, Streptokinase A (Streptococcus pyogenes serotype M1, UniProt P10520); assay: S. pyogenes streptokinase expression inhibitors, potency, dose response, plasminogen activation absorbance, OD405 (AID 1914); type: functional, Streptococcus pyogenes M1 GAS;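 note: secreted streptokinase activity via plasminogen activation per viability signal from cell pellet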
# T6 sequence (P10520 whole entry): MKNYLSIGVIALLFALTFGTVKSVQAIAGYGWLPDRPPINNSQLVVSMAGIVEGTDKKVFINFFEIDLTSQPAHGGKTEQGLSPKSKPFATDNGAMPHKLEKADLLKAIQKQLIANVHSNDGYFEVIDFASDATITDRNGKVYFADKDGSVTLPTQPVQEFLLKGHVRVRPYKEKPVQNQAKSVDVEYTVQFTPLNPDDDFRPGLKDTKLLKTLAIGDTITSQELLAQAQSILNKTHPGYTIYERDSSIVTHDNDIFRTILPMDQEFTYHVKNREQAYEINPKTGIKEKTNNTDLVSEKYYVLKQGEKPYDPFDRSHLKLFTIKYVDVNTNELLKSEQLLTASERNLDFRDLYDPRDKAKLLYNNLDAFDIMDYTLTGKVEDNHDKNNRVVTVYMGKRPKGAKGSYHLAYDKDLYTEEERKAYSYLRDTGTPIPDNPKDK
# [12] = microbe, parasite or virus in culture; type: functional; conditions: Mycobacterium tuberculosis
# [13] = molecular target: T7, Polyadenylate-binding protein 1 (Homo sapiens, UniProt P11940); assay: PABP1 MLLE–PAM2 interaction inhibitors, dose response, miRNA deadenylation inhibitor project, biochemical, fluorescence polarization, Cy5-PAM2 peptide, secondary (AID 602260); type: functional; conditions: read-out: IC50_Mean
# [14] = molecular target: T7, Polyadenylate-binding protein 1; assay: PABP1 MLLE–PAM2 binding inhibitor potency, dose response, biochemical, fluorescence polarization, FITC-PAM2 peptide (AID 602259); type: functional; conditions: read-out: IC50_Mean
# [15] = HepG2 cell cytotoxicity, dose response, cytotoxicity control for Shn3 inhibitor project, CellTiter-Glo, cherry-picked (AID 624134); type: functional, cell-based
# [16] = Shn3 3'UTR reporter inhibitors, dose response, cell-based, Clone20 osteoblasts, firefly luciferase, cherry-picked (AID 624132); type: functional;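 note: firefly luciferase luminescence from reporter carrying the Shn3 3'UTR in osteoblasts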
# [17] = control 3'UTR Renilla luciferase suppression, dose response, counter-screen for Shn3 inhibitor project, cell-based, Clone20-Shn3RL, cherry-picked (AID 624133); type: functional
# T7 sequence (P11940 whole entry): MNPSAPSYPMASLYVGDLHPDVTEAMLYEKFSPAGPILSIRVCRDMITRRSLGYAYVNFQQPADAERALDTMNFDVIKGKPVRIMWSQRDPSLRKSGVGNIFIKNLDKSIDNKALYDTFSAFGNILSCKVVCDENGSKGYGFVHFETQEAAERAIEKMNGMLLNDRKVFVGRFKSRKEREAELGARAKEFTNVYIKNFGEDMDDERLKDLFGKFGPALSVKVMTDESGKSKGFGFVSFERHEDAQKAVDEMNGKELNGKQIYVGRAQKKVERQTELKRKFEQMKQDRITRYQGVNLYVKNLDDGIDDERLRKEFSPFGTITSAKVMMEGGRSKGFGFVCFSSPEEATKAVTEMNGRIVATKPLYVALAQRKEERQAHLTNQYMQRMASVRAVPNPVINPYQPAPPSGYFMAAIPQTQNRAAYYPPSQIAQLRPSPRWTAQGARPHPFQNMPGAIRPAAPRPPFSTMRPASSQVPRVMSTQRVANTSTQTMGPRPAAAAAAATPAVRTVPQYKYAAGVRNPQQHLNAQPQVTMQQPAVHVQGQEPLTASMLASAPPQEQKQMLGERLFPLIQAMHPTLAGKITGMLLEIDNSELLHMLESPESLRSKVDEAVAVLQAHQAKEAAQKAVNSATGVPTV
smiles,measurement,setting,value
CC1CCN(Cc2nnnn2CCCC(=O)NCCc2cnn(C)c2)CC1,EC50,[1],> 350 µM (not active)
same,EC50,[2],> 350 µM (not active)
O=C(C1=C[C@@H](C2CC2)C[C@@H](OCCCCO)O1)N1CCN(Cc2ccc3c(c2)OCO3)CC1,EC50,[1],> 350 µM (not active)
same,EC50,[2],> 350 µM (not active)
COc1ccc(C(=O)C2CCCN(C(=O)C3CCOCC3)C2)cc1OC (stereo not drawn),EC50,[1],> 350 µM (not active)
same,EC50,[2],> 350 µM (not active)
CC(C)C(OC(=O)C1=Cc2ccccc2OC1)C(=O)NC1CCCC1 (stereo not drawn),IC50,[3],> 100 µM (inactive)
CC(CCc1ccccc1)NC(=O)c1ccc(Br)cc1 (stereo not drawn),AC50,[4],2.6 µM (active)
CNS(=O)(=O)c1ccc2c(c1)nc(S)n2C,IC50,[3],> 100 µM (inactive)
CC(C)OC(=O)c1cccc(-c2ccc(C=O)o2)c1,IC50,[5],14.5 µM (active)
O=C(C=Cc1cccc(O)c1)c1ccccc1O,AC50,[4],2.81 µM (active)
Clc1ccccc1-c1ccc(CN2CCN(c3ccccc3)CC2)o1,IC50,[3],> 100 µM (inactive)
Cn1c(CC(=O)Nc2ccccc2)cc2ccccc21,EC50,[1],> 350 µM (not active)
same,EC50,[2],> 350 µM (not active)
O=C(Nc1ccc(S(=O)(=O)NC2=NCCCCC2)cc1)c1ccc(C(F)(F)F)cc1,IC50,[5],11.8 µM (active)
CCC(NCCc1ccccc1)=C1C(=O)N(C)C(=O)N(C)C1=O,IC50,[5],13.8 µM (active)
O=C(c1ccc([N+](=O)[O-])s1)N1CCN(c2ccccn2)CC1,AC50,[6],12.2 µM (active)
Cc1ccc(C(C(=O)NC(C)(C)C)N(Cc2ccccc2)C(=O)c2snc(C(N)=O)c2N)o1 (stereo not drawn),IC50,[7],> 20 µM (inactive)
CCc1ccc(-c2nn(-c3cc(Cl)ccc3[N+](=O)[O-])c(=O)c3ccccc23)cc1,IC50,[3],> 100 µM (inactive)
OCCN(CCO)c1ccc(C(c2ccccc2Cl)c2ccc(N(CCO)CCO)cc2Cl)c(Cl)c1,EC50,[8],4.01 µM (active)
same,EC50,[9],8.65 µM (active)
same,AC50,[10],1.91 µM (active)
same,EC50,[11],4.84 µM (active)
same,IC50,[3],> 100 µM (inactive)
O=C(NCCCN1CCOCC1)c1cc2c3ccccc3nc-2c(-c2cccc(Br)c2)[nH]1,CC50,[12],19.4 µM (active)
same,IC50,[7],> 20 µM (inactive)
Cc1cc(-c2ccccc2)n(-c2ccc(C(=O)N3CCN(c4ncccn4)CC3)cc2)n1,IC50,[5],8.32 µM (active)
CCN(Cc1ccncc1)C(=O)c1cc(COc2ccc(F)cc2Cl)on1,IC50,[5],13.2 µM (active)
CC/C(NN1CCCCCC1)=C1/C(=O)NC(=O)N(c2ccc(C)cc2)C1=O,EC50,[1],> 350 µM (not active)
same,EC50,[2],> 350 µM (not active)
Cc1cccc(NC(=S)Nc2ccc(Cl)c(Cl)c2)c1,IC50,[13],> 66 µM (inactive)
same,IC50,[14],> 66 µM (inactive)
same,EC50,[11],24.5 µM (active)
Cc1cc2c(cc(C(=O)N3CCC(C(=O)NC4CCCC4)CC3)n2Cc2c(F)cccc2Cl)o1,AC50,[15],49.4 µM (active)
same,AC50,[16],4.81 µM (active)
same,AC50,[17],10 µM (active)
CC(C)=CCc1c(O)cc(O)c2c(=O)c(O[C@@H]3O[C@@H](C)[C@H](O)[C@@H](O)[C@H]3O)c(-c3ccc(O)cc3)oc12,IC50,[7],> 20 µM (inactive)
COc1ccc(Cl)cc1N=C(N)Nc1nc(O)cc(CSc2ccc(C)cc2)n1,AC50,[15],> 70 µM (inactive)
same,AC50,[16],1.82 µM (active)
same,AC50,[17],21.5 µM (active)
COCCn1cc(C(=O)NCc2cccs2)c2c3ccccc3n(C)c2c1=O,IC50,[3],> 100 µM (inactive)
O=C(Nc1cccc(C(=O)N2CCCCC2)c1)c1ccccc1Br,IC50,[5],16.8 µM (active)
CCOc1ccc(-c2nnc(-c3cccs3)o2)cc1,IC50,[3],> 100 µM (inactive)

# Reference: ChEMBL document CHEMBL1201862, “PubChem BioAssay data set” (2004)
